# Measured values taken from patent US11109591B2, “Single phase liquids of alkanolamine salts of dicamba” (Taminco BVBA, priority 2017, dated 2021).
# Tests used:
# Format in all cases: physicochemical
# [1] = Density of max-load solutions at ambient temperature
# [2] = 2 mL samples spotted onto glass plates, left uncovered at ambient conditions for approximately two months; details: 2 mL on glass plate, 20°-25° C.
# Method: To evaluate the herbicidal compositions under more stringent conditions, we increased their surface area and exposed them to ambient conditions at room temperature, atmospheric pressure, and uncovered over an extended period of time: 2 mL samples of the five liquefied combinations were spotted onto glass plates and left uncovered at ambient conditions (temperatures within a range of 20°-25° C.) for approximately two months.
# [3] = Storage in closed containers at ambient conditions for several months, visual phase check; details: 20-25 C, atmospheric pressure
# From the text: Behaviors inconsistent with a single phase liquid include liquid/liquid separation of layers, or liquid/solid striation, in each case noticeable as such to the unaided eye. […] The single phase liquid need not necessarily be a true solution in the physical sense but will appear to be a single phase to the unaided eye as described above.
# The amine-herbicide formulations prepared in Examples 1, 2, 3, and 4 were stored in closed containers at ambient conditions (room temperature varying from 20-25 C, atmospheric pressure) for several months.
# [4] = Maximum loading of herbicide amine salt in water (HCl titration of amine, Karl-Fischer water); details: glufosinate amine salts in water
# From the text: F is a factor that takes into account the amount of base or acid groups on the amine or acid, respectively.
SMILES,density of max-load solution [1] [g/mL],physical state after open exposure on glass plate [2],physical state after storage (visual presence of salt solids) [3],Max Load amine [4] [g/L],Max Load g ae/L [4] [g ae/L]
"CCCCN(CCCC)CCCC.O=C(O)COc1ccc(Cl)cc1Cl [TNBA/2,4-D]",1.1,turned into a crystallized mass,formed single phase liquids,,
COc1c(Cl)ccc(Cl)c1C(=O)O [MMEA/dicamba],1.31,remained liquefied,formed single phase liquids,,
CP(=O)(O)CCC(N)C(=O)O.N (centres unmarked) [NH3/glufosinate],,,,1340,1339
"CN(C)Cc1ccccc1.O=C(O)COc1ccc(Cl)cc1Cl [BDMA/2,4-D]",1.25,turned into a crystallized mass,formed single phase liquids,,
